Here are results for one compound from patent US7183430B2, “Compounds which can block the response to chemical substances or thermal stimuli or mediators of inflammation of nociceptors, production method thereof and compositions containing same” (Diverdrugs, S.L., priority 2002, dated 2007).

A short description of experiment [1]: acute inflammatory pain model caused by subcutaneous capsaicin (paw lick latency). The format is in vivo. The note with it: mice, intraperitoneal; for behavioral latency time (paw lick): carrier 20±5 s. On the procedure: The analgesic activity of the products was determined by assessing their effect in the acute inflammatory pain model caused by subcutaneous administration of the capsaicin irritant. Administration of this vanilloid causes a neurogenic inflammation in animals with acute painful burning sensation resulting in thermal and mechanical hyperalgesia. The behavioral latency time to paw lick after intraperitoneal administration of the compounds to mice at different doses was monitored.

Experiment [2] has as its system afferent nerve fibers from the knee of the rat. Briefly: nervous activity caused by capsaicin in afferent nerve fibers from the knee.
Experiment [3] deals with primary trigeminal neuronal cultures. Kind of experiment: entrance of calcium cation stimulated by capsaicin in neuronal cultures. The format is cell-based.
A short description of experiment [4]: 52° C. hot plate nociception test. Type of experiment: in vivo. The note with it: mice, 10 mg/Kg intraperitoneal, carrier 11.5±2 s. Here is the method:
A 52° C. hot plate test was used as a nociception test, where the latency time to paw withdrawal or jump of the animal was monitored. The compounds were intraperitoneally administered to mice at a dose of 10 mg/Kg. The behavioral test was carried out at 30, 60 and 120 minutes after the administration of the compounds.

On to `N=C(N)NCCC[C@H](N)C(=O)N(CCc1ccc(Cl)cc1Cl)CC(=O)N(CCc1ccc(Cl)cc1Cl)CC(N)=O` [Example 1], for which the “behavioral latency time (paw lick)” value in experiment [1] (2 mg/Kg) turned out to be 90 ± 10 s; in experiment [1] (5 mg/Kg) it was 190 ± 50 s; in experiment [1] (10 mg/Kg), 250 ± 40 s. Moreover, the “duration of the behavioral response” value in experiment [1] (2 to 10 mg/Kg) was “decreased as the dose of the compound increased”. Besides, the “block of the nervous activity caused by capsaicin” value in experiment [2] is 80%. In experiment [3], the “inhibition of the entrance of calcium cation stimulated by capsaicin” value was found to be 85%. Besides, the “latency to the first response (paw withdrawal or jump)” value is 20 ± 4 s in experiment [4] (30 minutes after), 18 ± 3 s in experiment [4] (60 minutes after) and 18 ± 4 s in experiment [4] (120 minutes after).
